Source: patent US12252524B2, “GIP/GLP1 co-agonist compounds” (Eli Lilly and Company, priority 2018, dated 2025)
Like-named read-outs stand apart in the source and are kept apart here. Numbered stars: 1 amine (or outer) side, 2 acyl side, 3 side chain; on linkers, the order of the positions; unused ones are H or OH. Square brackets hold non-standard residues; d marks the D form. Side chains are listed from the residue outwards. Peptide text beside a SMILES is read from it. * marks the point of attachment. C20 diacid = O=C(O)CCCCCCCCCCCCCCCCCCC(=O)*; C18 diacid = O=C(O)CCCCCCCCCCCCCCCCC(=O)*; γGlu = O=C(O)[C@H](CCC(=O)[*:2])N[*:1]; αMeY = C[C@](N)(Cc1ccc(O)cc1)C(=O)O; αMeF = C[C@](N)(Cc1ccccc1)C(=O)O; αMeL = CC(C)C[C@](C)(N)C(=O)O; AEEA = NCCOCCOCC(=O)O; Aib = CC(C)(N)C(=O)O

Experiments:
human GIP receptor = target: T1, human GIP receptor (Homo sapiens, UniProt P48546); assay: [125I]-GIP binding (SPA), human GIP receptor; settings: read-out: hGIPR Ki, nM (SEM, n)
T1 construct: expressed in transfected cells; crude membranes
T1 sequence (P48546 22-466): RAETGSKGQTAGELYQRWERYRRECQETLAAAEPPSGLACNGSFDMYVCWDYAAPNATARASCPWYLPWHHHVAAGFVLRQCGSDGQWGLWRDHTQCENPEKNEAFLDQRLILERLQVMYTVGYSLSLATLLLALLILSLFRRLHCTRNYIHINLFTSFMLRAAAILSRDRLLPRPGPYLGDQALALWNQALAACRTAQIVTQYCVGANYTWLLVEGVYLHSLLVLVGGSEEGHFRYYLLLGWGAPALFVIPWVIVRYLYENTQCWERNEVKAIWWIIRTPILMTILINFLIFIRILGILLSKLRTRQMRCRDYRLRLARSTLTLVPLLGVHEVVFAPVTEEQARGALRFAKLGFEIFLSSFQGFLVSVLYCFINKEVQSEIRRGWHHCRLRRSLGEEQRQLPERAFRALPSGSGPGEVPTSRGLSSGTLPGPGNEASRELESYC

[1] = target: human GLP-1 receptor (GLP-1R) (Homo sapiens, UniProt P43220); assay: cAMP pharmacological functional assay in presence of casein, hGLP-1R; type: cell-based
Sequence of human GLP-1 receptor (GLP-1R) (P43220 24-463): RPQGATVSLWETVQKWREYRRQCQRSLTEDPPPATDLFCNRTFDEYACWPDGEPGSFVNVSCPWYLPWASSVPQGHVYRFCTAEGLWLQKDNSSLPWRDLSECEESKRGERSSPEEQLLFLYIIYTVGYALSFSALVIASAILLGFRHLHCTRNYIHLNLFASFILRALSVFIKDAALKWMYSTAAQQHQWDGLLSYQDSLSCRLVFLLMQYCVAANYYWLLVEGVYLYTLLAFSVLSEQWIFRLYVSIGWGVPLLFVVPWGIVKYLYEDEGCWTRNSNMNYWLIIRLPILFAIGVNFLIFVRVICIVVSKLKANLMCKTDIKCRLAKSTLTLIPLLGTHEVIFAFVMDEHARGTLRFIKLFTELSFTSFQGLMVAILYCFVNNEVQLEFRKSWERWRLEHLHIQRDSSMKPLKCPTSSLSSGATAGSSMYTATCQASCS

human GLP-1R [2] = target: T2, human GLP-1R (Homo sapiens, UniProt P43220); assay: [125I]-GLP-1 binding (SPA), human GLP-1 receptor; parameters: expressed in transfected cells; crude membranes; settings: read-out: hGLP1R Ki, (nM) (SEM, n)
T2 sequence (P43220 24-463): as above
In short: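 Crude-membrane binding assay; one membrane prep included 1 mM MgCl2 and 25 units/ml DNAse I during lysis. Assay buffer at pH 7.4 contains 0.1% (w/v) bacitracin and 0.003% (w/v) TWEEN-20. Ki is reported as geometric mean.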

human Gcg receptor = target: T3, human Gcg receptor (Homo sapiens, UniProt P47871); assay: [125I]-Glucagon binding (SPA), human Gcg receptor; settings: read-out: hGLcgR Ki, nM (SEM, n)
T3 construct: expressed in transfected cells; crude membranes
T3 sequence (P47871 26-477): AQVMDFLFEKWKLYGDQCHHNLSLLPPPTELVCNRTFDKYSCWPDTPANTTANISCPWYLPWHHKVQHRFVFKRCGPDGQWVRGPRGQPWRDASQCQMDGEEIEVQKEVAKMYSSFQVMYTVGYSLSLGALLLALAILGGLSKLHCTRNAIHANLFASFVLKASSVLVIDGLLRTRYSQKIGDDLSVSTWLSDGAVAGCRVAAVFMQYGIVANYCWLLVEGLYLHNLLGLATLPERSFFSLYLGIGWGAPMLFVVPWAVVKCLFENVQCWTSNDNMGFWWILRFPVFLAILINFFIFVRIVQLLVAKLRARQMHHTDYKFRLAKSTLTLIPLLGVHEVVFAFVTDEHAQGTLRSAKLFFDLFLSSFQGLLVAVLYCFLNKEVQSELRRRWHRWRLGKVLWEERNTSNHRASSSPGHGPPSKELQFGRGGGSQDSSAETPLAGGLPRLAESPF
In short: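 Cell pellets were lysed in hypotonic Tris buffer, pH 7.5, homogenized, and spun at low then high speed to give crude membranes. Ki was derived from the fitted IC50.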

[3] = target: T4, gastric inhibitory peptide receptor (GIPR) (Homo sapiens, UniProt P48546); assay: cAMP pharmacological functional assay in presence of casein, hGIPR; type: cell-based
T4 sequence (P48546 22-466): T1 sequence (P48546 22-466)

human GLP-1R [4] = target: T2, human GLP-1R; assay: GLP-1R HEK293 cell membrane [35S]GTPγS binding assay; type: biochemical; parameters: expressed in transfected cells; host or cells: HEK293 cells expressing human GLP-1R; membranes
Method: The GLP-1 receptor is a G-protein coupled receptor that increases GTP-bound Gas upon ligand induced receptor activation. The potency of peptides to stimulate-GLP-1R induced activation of Gac is determined using preparations of purified membranes from HEK293 cells expressing the human GLP-1R. […] The test peptides are solubilized in DMSO and diluted in reaction buffer containing 5 μg of membrane in 20 mM HEPES pH 7.4, 50 mM NaCl, 5 mM MgCl2, 40 μg/ml saponin, 0.1% BSA, and […] ^35S-labeled GTPTS for 30 minutes at room temperature. Reactions are terminated by addition of 0.2% Nonidet β-40 detergent containing rabbit anti-Gas polyclonal antibody and 0.5 mg of anti-rabbit polyvinyltoluene beads. Mixtures are developed for 30 minutes, centrifuged at 80×g for 10 minutes, and counted for 1 minute/well using a MicroBeta TriLux instrument. Peptide concentration-response curves are fit to a four-parameter logistic model to calculate potency as an EC50.

human GLP-1R [5] = target: T2, human GLP-1R; assay: GLP-1R CHO cell β-arrestin recruitment assay; type: cell-based; parameters: host or cells: CHO-K1 PathHunter cells, assay-ready frozen; settings: for hGLP1R B-Arrestin2 % Top: normalized to GLP-1 maximum control
Excerpt: Activated G-protein coupled receptors can interact with the β-arrestin family of signalling proteins. […] CHO-K1 cells expressing Pro-Link-tagged Human GLP-1R and enzyme-acceptor-tagged β-arrestin-2 may be obtained from DiscoveRx and prepared as assay-ready frozen cells. Test peptides are solubilized in DMSO and serial dilutions are perfomed using the Echo acoustic dispenser (LabCyte). Assay media is the PathHunter Cell Assay Buffer (DiscoveRx) containing 0.1% w/v hydrolyzed Casein (Sigma). […] Plates are incubated for 90 minutes in a 37′C/5% C02 incubator and 10 ul of PathHunter detection reagent is added (DiscoveRx) and plates are incubated at room temperature for 60 minutes. Luminescence signal is measured. Peptide concentration-response curves fit to a four-parameter logistic model to calculate potency as an EC50.

[6] = HEK293 cells expressing hGLP-1R, 0.1% Casein, geometric mean, read-out: hGLP1R cAMP Rel EC50 nM (SEM, n)
[7] = HEK293 cells expressing hGIPR, 0.1% Casein, geometric mean, read-out: hGIPR cAMP Rel EC50 nM (SEM, n)
[8] = HEK293 cell membranes expressing human GLP-1R, [35S]GTPγS binding, read-out: hGLP1R GTPgS Rel EC50 nM (SEM, n)

Row | Structure (SMILES) | Ki (human GIP receptor) [nM] | EC50 [1, 6] [nM] | Ki (human GLP-1R [2]) [nM] | Ki (human Gcg receptor) [nM] | EC50 [3, 7] [nM] | EC50 (human GLP-1R [4]; [8]) [nM] | EC50 [1] [nM] | EC50 (human GLP-1R [5]) [µM] | hGLP1R B-Arrestin2 % Top (human GLP-1R [5]) [%] | EC50 [3] [nM] | EC50 (human GLP-1R [4]) [nM] | EC50 (human GLP-1R [5]; CHO-K1 cells, PathHunter β-arrestin-2 recruitment, 0.1% casein, read-out: hGLP1R B-Arrestin2 Rel EC50 uM (SEM, n)) [µM]
1 | CC[C@H](C)[C@H](NC(=O)[C@H](CC(C)C)NC(=O)[C@H](Cc1ccc(O)cc1)NC(=O)[C@H](CCC(=O)O)NC(=O)[C@@H](NC(=O)[C@H](Cc1ccccc1)NC(=O)[C@H](C)NC(=O)C(C)(C)NC(=O)[C@H](CCC(N)=O)NC(=O)[C@H](C)NC(=O)[C@H](CCCCNC(=O)COCCOCCNC(=O)COCCOCCNC(=O)CC[C@H](NC(=O)CCCCCCCCCCCCCCCCCCC(=O)O)C(=O)O)NC(=O)[C@H](CCCCN)NC(=O)[C@H](CC(=O)O)NC(=O)[C@H](CC(C)C)NC(=O)[C@H](CC(C)C)NC(=O)[C@@H](NC(=O)[C@H](CO)NC(=O)[C@H](Cc1ccc(O)cc1)NC(=O)[C@H](CC(=O)O)NC(=O)[C@H](CO)NC(=O)[C@@H](NC(=O)[C@H](Cc1ccccc1)NC(=O)[C@@H](NC(=O)CNC(=O)[C@H](CCC(=O)O)NC(=O)C(C)(C)NC(=O)[C@@H](N)Cc1ccccc1)[C@@H](C)O)[C@@H](C)O)[C@@H](C)CC)[C@@H](C)CC)C(=O)N[C@@H](CCC(=O)O)C(=O)NCC(=O)NCC(=O)N1CCC[C@H]1C(=O)N[C@@H](CO)C(=O)N[C@@H](CO)C(=O)NCC(=O)N[C@@H](C)C(=O)N1CCC[C@H]1C(=O)N1CCC[C@H]1C(=O)N1CCC[C@H]1C(=O)N[C@@H](CO)C(N)=O [Example 326] (H-F[Aib]EGTFTSDYSILLDKK([AEEA-AEEA-γGlu-C20 diacid])AQ[Aib]AFIEYLIEGGPSSGAPPPS-NH2) | 0.251 | 0.0369 | 2.92 | 207 | 0.0754 | 0.663 |  |  |  |  |  | 
2 | CC[C@H](C)[C@H](NC(=O)[C@H](CC(C)C)NC(=O)[C@H](Cc1ccc(O)cc1)NC(=O)[C@H](CCC(=O)O)NC(=O)[C@@H](NC(=O)[C@H](Cc1ccccc1)NC(=O)[C@H](C)NC(=O)C(C)(C)NC(=O)[C@H](CCC(N)=O)NC(=O)[C@H](C)NC(=O)[C@H](CCCCNC(=O)COCCOCCNC(=O)COCCOCCNC(=O)CC[C@H](NC(=O)CCCCCCCCCCCCCCCCC(=O)O)C(=O)O)NC(=O)[C@H](CCCCN)NC(=O)[C@H](CC(=O)O)NC(=O)[C@H](CC(C)C)NC(=O)[C@](C)(CC(C)C)NC(=O)[C@@H](NC(=O)[C@H](CO)NC(=O)[C@H](Cc1ccc(O)cc1)NC(=O)[C@H](CC(=O)O)NC(=O)[C@H](CO)NC(=O)[C@@H](NC(=O)[C@H](Cc1ccccc1)NC(=O)[C@@H](NC(=O)CNC(=O)[C@H](CCC(=O)O)NC(=O)C(C)(C)NC(=O)[C@@H](N)Cc1ccccc1)[C@@H](C)O)[C@@H](C)O)[C@@H](C)CC)[C@@H](C)CC)C(=O)N[C@@H](CCC(=O)O)C(=O)N[C@@H](C)C(=O)NCC(=O)N1CCC[C@H]1C(=O)N[C@@H](CO)C(=O)N[C@@H](CO)C(=O)NCC(=O)N[C@@H](C)C(=O)N1CCC[C@H]1C(=O)N1CCC[C@H]1C(=O)N1CCC[C@H]1C(=O)N[C@@H](CO)C(N)=O [Example 328] (H-F[Aib]EGTFTSDYSI[αMeL]LDKK([AEEA-AEEA-γGlu-C18 diacid])AQ[Aib]AFIEYLIEAGPSSGAPPPS-NH2) | 0.136 | 0.117 | 3.98 | > 1450 | 0.0965 | 0.481 |  |  |  |  |  | 
3 | CC[C@H](C)[C@H](NC(=O)[C@H](CC(C)C)NC(=O)[C@H](Cc1ccc(O)cc1)NC(=O)[C@H](CCC(=O)O)NC(=O)[C@@H](NC(=O)[C@H](Cc1ccccc1)NC(=O)[C@H](CCC(=O)O)NC(=O)C(C)(C)NC(=O)[C@H](CCC(N)=O)NC(=O)[C@H](C)NC(=O)[C@H](CCCCNC(=O)COCCOCCNC(=O)COCCOCCNC(=O)CC[C@H](NC(=O)CCCCCCCCCCCCCCCCCCC(=O)O)C(=O)O)NC(=O)[C@H](CCCCN)NC(=O)[C@H](CC(=O)O)NC(=O)[C@H](CC(C)C)NC(=O)[C@](C)(CC(C)C)NC(=O)[C@@H](NC(=O)[C@H](CO)NC(=O)[C@H](Cc1ccc(O)cc1)NC(=O)[C@H](CC(=O)O)NC(=O)[C@H](CO)NC(=O)[C@@H](NC(=O)[C@](C)(Cc1ccccc1)NC(=O)[C@@H](NC(=O)CNC(=O)[C@H](CCC(=O)O)NC(=O)C(C)(C)NC(=O)[C@H](N)Cc1ccc(O)cc1)[C@@H](C)O)[C@@H](C)O)[C@@H](C)CC)[C@@H](C)CC)C(=O)N[C@@H](C)C(=O)NCC(=O)NCC(=O)N1CCC[C@H]1C(=O)N[C@@H](CO)C(=O)N[C@@H](CO)C(=O)NCC(=O)N[C@@H](C)C(=O)N1CCC[C@H]1C(=O)N1CCC[C@H]1C(=O)N1CCC[C@H]1C(=O)N[C@@H](CO)C(N)=O [Example 345] (H-[dY][Aib]EGT[αMeF]TSDYSI[αMeL]LDKK([AEEA-AEEA-γGlu-C20 diacid])AQ[Aib]EFIEYLIAGGPSSGAPPPS-NH2) |  |  |  |  |  |  | 0.035 | 0.00308 | 74.7 | 0.0649 | 0.684 | 
4 | CC[C@H](C)[C@H](NC(=O)[C@H](CC(C)C)NC(=O)[C@](C)(Cc1ccc(O)cc1)NC(=O)[C@H](CCC(=O)O)NC(=O)[C@@H](NC(=O)[C@H](Cc1ccccc1)NC(=O)[C@H](C)NC(=O)C(C)(C)NC(=O)[C@H](CCC(N)=O)NC(=O)[C@H](C)NC(=O)[C@H](CCCCNC(=O)COCCOCCNC(=O)COCCOCCNC(=O)CC[C@H](NC(=O)CCCCCCCCCCCCCCCCCCC(=O)O)C(=O)O)NC(=O)[C@H](CCC(=O)O)NC(=O)[C@H](CC(=O)O)NC(=O)[C@H](CC(C)C)NC(=O)[C@](C)(CC(C)C)NC(=O)[C@@H](NC(=O)[C@H](CO)NC(=O)[C@H](Cc1ccc(O)cc1)NC(=O)[C@H](CC(=O)O)NC(=O)[C@H](CO)NC(=O)[C@@H](NC(=O)[C@H](Cc1ccccc1)NC(=O)[C@@H](NC(=O)CNC(=O)[C@H](CCC(=O)O)NC(=O)C(C)(C)NC(=O)[C@H](N)Cc1ccc(O)cc1)[C@@H](C)O)[C@@H](C)O)[C@@H](C)CC)[C@@H](C)CC)C(=O)N[C@@H](C)C(=O)NCC(=O)NCC(=O)N1CCC[C@H]1C(=O)N[C@@H](CO)C(=O)N[C@@H](CO)C(=O)NCC(=O)N[C@@H](C)C(=O)N1CCC[C@H]1C(=O)N1CCC[C@H]1C(=O)N1CCC[C@H]1C(=O)N[C@@H](CO)C(N)=O [Example 381] (H-[dY][Aib]EGTFTSDYSI[αMeL]LDEK([AEEA-AEEA-γGlu-C20 diacid])AQ[Aib]AFIE[αMeY]LIAGGPSSGAPPPS-NH2) |  |  |  |  |  | 0.273 |  |  | 25.8 |  |  | 0.0155
